From patent publication US12558428B2, “Heterobifunctional compounds and their use in treating disease” (Halda Therapeutics OpCo, Inc., priority 2024, dated 2026)

What follows are compounds tested on T-Rex 293 cells having increased expression of estrogen receptor alpha protein (assay: Cellular growth inhibition assay, T-Rex 293 cells, (+) doxycycline). Details: T-REx-293, 72 h, Table 7-A; T-Rex 293 cells with doxycycline (increased ERα expression); 72 hours; CellTiter-Glo; read-out: (+) Dox GI50.
Format: cell-based
Procedure, shortened: (§1)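 Growth of a doxycycline-inducible ERα T-Rex 293 clone, induced or not with 3 ng/mL doxycycline, was followed for 72 h with test compound in hormone-depleted medium. CellTiter-Glo luminescence gave GI50.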

Q: For `Cc1sc2c(c1C)C(c1ccc(N3CC(N4CCN(Cc5ccc([C@@H]6c7ccc(O)cc7CC[C@@H]6c6ccccc6)cc5)CC4)C3)cc1)=N[C@@H](Cc1ncco1)c1nnc(C)n1-2` [III-124], which GI50 is on record?
A: 0.05 to 0.5 µM

Q: Which GI50 does the source give for `Cc1sc2c(c1C)C(c1ccc(N3CCC(CN4CCN(c5ccc([C@H]6c7ccc(O)cc7CC[C@H]6c6ccccc6)cn5)CC4)CC3)cc1)=N[C@@H](Cc1ncco1)c1nnc(C)n1-2` [III-125] here?
A: < 0.05 µM

Q: With `Cc1sc2c(c1C)C(c1ccc(N3CCC(CN4CCN(c5ccc([C@@H]6c7ccc(O)cc7CC[C@@H]6c6ccccc6)cn5)CC4)CC3)cc1)=N[C@@H](Cc1ncco1)c1nnc(C)n1-2` [III-126] as the compound, how does the GI50 read?
A: < 0.05 µM

Q: For `Cc1sc2c(c1C)C(c1ccc(N3CCN(CC4CCN(c5ncc([C@H]6c7ccc(O)cc7CC[C@H]6c6ccccc6)cn5)CC4)CC3)cc1)=N[C@@H](Cc1ncco1)c1nnc(C)n1-2` [III-127], which GI50 is on record?
A: 0.05 to 0.5 µM

Q: With `Cc1sc2c(c1C)C(c1ccc(N3CCN(CC4CCN(c5ncc([C@@H]6c7ccc(O)cc7CC[C@@H]6c6ccccc6)cn5)CC4)CC3)cc1)=N[C@@H](Cc1ncco1)c1nnc(C)n1-2` [III-128] as the compound, how does the GI50 read?
A: < 0.05 µM

Q: Which GI50 does the source give for `Cc1sc2c(c1C)C(c1ccc(N3CCC4(CCN(Cc5ccc([C@@H]6c7ccc(O)cc7CC[C@@H]6c6ccccc6)cc5)CC4)CC3)cc1)=N[C@@H](C)c1nnc(C)n1-2` [III-129] here?
A: 0.05 to 0.5 µM

Q: For `COC1(CN2CCC(c3ccc([C@@H]4c5ccc(O)cc5CC[C@@H]4c4ccccc4)cc3)CC2)CCN(c2ccc(C3=N[C@@H](C)c4nnc(C)n4-c4sc(C)c(C)c43)cc2)CC1` [III-130], which GI50 is on record?
A: 0.05 to 0.5 µM

Q: With `Cc1sc2c(c1C)C(c1ccc(N3CC(CC4CCN(CC5CN(c6ccc([C@@H]7c8ccc(O)cc8CC[C@@H]7c7ccccc7)cc6)C5)CC4)C3)cc1)=N[C@@H](C)c1nnc(C)n1-2` [III-131] as the compound, how does the GI50 read?
A: < 0.05 µM

Q: Which GI50 does the source give for `Cc1sc2c(c1C)C(c1ccc(N3CCC(CN4CCC(c5ccc([C@@H]6c7ccc(O)cc7CC[C@@H]6c6ccccc6)cc5)CC4)CC3)cc1)=N[C@@H](C)c1nnc(C)n1-2` [III-132] here?
A: 0.05 to 0.5 µM

Each compound was assayed on MCF7 cells (ATCC #HTB-22) (assay: Cellular growth inhibition assay, MCF7 cells purchased from ATCC). Details: Homo sapiens, MCF7, 144 h, Table 8-A; MCF7 cells purchased from ATCC; six days; CellTiter-Glo; read-out: GI50.
Format: cell-based
Procedure, shortened: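 GI50 values come from a four-parameter fit of CellTiter-Glo 2.0 luminescence after six days of compound exposure at 37° C. Seeding density depended on the source: 225 cells/well for ECACC MCF7, 1,500 for ATCC. Medium was RPMI 1640 with 10% FBS and 0.2 U/ml insulin.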

Q: For `Cc1sc2c(c1C)C(c1ccc(N3CC(N4CCN(Cc5ccc([C@@H]6c7ccc(O)cc7CC[C@@H]6c6ccccc6)cc5)CC4)C3)cc1)=N[C@@H](Cc1ncco1)c1nnc(C)n1-2` [III-124], which GI50 is on record?
A: 0.05 to 0.5 µM

Q: Which GI50 does the source give for `Cc1sc2c(c1C)C(c1ccc(N3CCC(CN4CCN(c5ccc([C@H]6c7ccc(O)cc7CC[C@H]6c6ccccc6)cn5)CC4)CC3)cc1)=N[C@@H](Cc1ncco1)c1nnc(C)n1-2` [III-125] here?
A: 0.05 to 0.5 µM

Q: With `Cc1sc2c(c1C)C(c1ccc(N3CCC(CN4CCN(c5ccc([C@@H]6c7ccc(O)cc7CC[C@@H]6c6ccccc6)cn5)CC4)CC3)cc1)=N[C@@H](Cc1ncco1)c1nnc(C)n1-2` [III-126] as the compound, how does the GI50 read?
A: 0.05 to 0.5 µM

Q: With `Cc1sc2c(c1C)C(c1ccc(N3CCN(CC4CCN(c5ncc([C@H]6c7ccc(O)cc7CC[C@H]6c6ccccc6)cn5)CC4)CC3)cc1)=N[C@@H](Cc1ncco1)c1nnc(C)n1-2` [III-127] as the compound, how does the GI50 read?
A: 0.05 to 0.5 µM

Q: `Cc1sc2c(c1C)C(c1ccc(N3CCN(CC4CCN(c5ncc([C@@H]6c7ccc(O)cc7CC[C@@H]6c6ccccc6)cn5)CC4)CC3)cc1)=N[C@@H](Cc1ncco1)c1nnc(C)n1-2` [III-128] was tested. Which GI50 did it give?
A: 0.05 to 0.5 µM

Q: Which GI50 does the source give for `Cc1sc2c(c1C)C(c1ccc(N3CCC4(CCN(Cc5ccc([C@@H]6c7ccc(O)cc7CC[C@@H]6c6ccccc6)cc5)CC4)CC3)cc1)=N[C@@H](C)c1nnc(C)n1-2` [III-129] here?
A: 0.05 to 0.5 µM

Q: How did the GI50 turn out when `COC1(CN2CCC(c3ccc([C@@H]4c5ccc(O)cc5CC[C@@H]4c4ccccc4)cc3)CC2)CCN(c2ccc(C3=N[C@@H](C)c4nnc(C)n4-c4sc(C)c(C)c43)cc2)CC1` [III-130] was run?
A: 0.05 to 0.5 µM

Q: `Cc1sc2c(c1C)C(c1ccc(N3CC(CC4CCN(CC5CN(c6ccc([C@@H]7c8ccc(O)cc8CC[C@@H]7c7ccccc7)cc6)C5)CC4)C3)cc1)=N[C@@H](C)c1nnc(C)n1-2` [III-131] was tested. Which GI50 did it give?
A: 0.05 to 0.5 µM

Q: `Cc1sc2c(c1C)C(c1ccc(N3CCC(CN4CCC(c5ccc([C@@H]6c7ccc(O)cc7CC[C@@H]6c6ccccc6)cc5)CC4)CC3)cc1)=N[C@@H](C)c1nnc(C)n1-2` [III-132] was tested. Which GI50 did it give?
A: 0.05 to 0.5 µM

Each compound was assayed on T-Rex 293 cells lacking increased expression of estrogen receptor alpha protein (assay: Cellular growth inhibition assay, T-Rex 293 cells, (−) doxycycline). Details: T-REx-293, 72 h, Table 7-A; T-Rex 293 cells without doxycycline (lacking increased ERα expression); 72 hours; CellTiter-Glo; read-out: (−) Dox GI50.
Format: cell-based
Procedure, shortened: as §1

Q: `Cc1sc2c(c1C)C(c1ccc(N3CC(N4CCN(Cc5ccc([C@@H]6c7ccc(O)cc7CC[C@@H]6c6ccccc6)cc5)CC4)C3)cc1)=N[C@@H](Cc1ncco1)c1nnc(C)n1-2` [III-124] was tested. Which GI50 did it give?
A: 0.5 to 2.5 µM

Q: With `Cc1sc2c(c1C)C(c1ccc(N3CCC(CN4CCN(c5ccc([C@H]6c7ccc(O)cc7CC[C@H]6c6ccccc6)cn5)CC4)CC3)cc1)=N[C@@H](Cc1ncco1)c1nnc(C)n1-2` [III-125] as the compound, how does the GI50 read?
A: 0.05 to 0.5 µM

Q: How did the GI50 turn out when `Cc1sc2c(c1C)C(c1ccc(N3CCC(CN4CCN(c5ccc([C@@H]6c7ccc(O)cc7CC[C@@H]6c6ccccc6)cn5)CC4)CC3)cc1)=N[C@@H](Cc1ncco1)c1nnc(C)n1-2` [III-126] was run?
A: 0.05 to 0.5 µM

Q: For `Cc1sc2c(c1C)C(c1ccc(N3CCN(CC4CCN(c5ncc([C@H]6c7ccc(O)cc7CC[C@H]6c6ccccc6)cn5)CC4)CC3)cc1)=N[C@@H](Cc1ncco1)c1nnc(C)n1-2` [III-127], which GI50 is on record?
A: 0.5 to 2.5 µM

Q: With `Cc1sc2c(c1C)C(c1ccc(N3CCN(CC4CCN(c5ncc([C@@H]6c7ccc(O)cc7CC[C@@H]6c6ccccc6)cn5)CC4)CC3)cc1)=N[C@@H](Cc1ncco1)c1nnc(C)n1-2` [III-128] as the compound, how does the GI50 read?
A: 0.05 to 0.5 µM

Q: How did the GI50 turn out when `Cc1sc2c(c1C)C(c1ccc(N3CCC4(CCN(Cc5ccc([C@@H]6c7ccc(O)cc7CC[C@@H]6c6ccccc6)cc5)CC4)CC3)cc1)=N[C@@H](C)c1nnc(C)n1-2` [III-129] was run?
A: 0.5 to 2.5 µM

Q: How did the GI50 turn out when `COC1(CN2CCC(c3ccc([C@@H]4c5ccc(O)cc5CC[C@@H]4c4ccccc4)cc3)CC2)CCN(c2ccc(C3=N[C@@H](C)c4nnc(C)n4-c4sc(C)c(C)c43)cc2)CC1` [III-130] was run?
A: 0.5 to 2.5 µM

Q: For `Cc1sc2c(c1C)C(c1ccc(N3CC(CC4CCN(CC5CN(c6ccc([C@@H]7c8ccc(O)cc8CC[C@@H]7c7ccccc7)cc6)C5)CC4)C3)cc1)=N[C@@H](C)c1nnc(C)n1-2` [III-131], which GI50 is on record?
A: 0.5 to 2.5 µM

Q: `Cc1sc2c(c1C)C(c1ccc(N3CCC(CN4CCC(c5ccc([C@@H]6c7ccc(O)cc7CC[C@@H]6c6ccccc6)cc5)CC4)CC3)cc1)=N[C@@H](C)c1nnc(C)n1-2` [III-132] was tested. Which GI50 did it give?
A: 0.5 to 2.5 µM
